Legend:
[1] = mn = molality of the nth substance listed, in mol/kg; conditions: 101 kPa, Liquid, variable-path interferometer
[2] = wn = mass fraction of the nth substance listed; conditions: 101 kPa, Liquid; for mass density: Pycnometric method; for viscosity: Capillary tube (Ostwald / Ubbelohde) method; for speed of sound: variable-path interferometer
[3] = 101 kPa, Liquid, Linear variable-path acoustic interferometer

C[C@@H](O)[C@H](N)C(=O)O [L-threonine] + O
speed of sound [m/s], [1]
Conditions | m1 = 0.0249 | m1 = 0.0498 | m1 = 0.0749 | m1 = 0.0999 | m1 = 0.125 | m1 = 0.1499 | m1 = 0.1749 | m1 = 0.1999
298.15 K | 1501.1 | 1505.5 | 1510.2 | 1515.2 | 1520.5 | 1526.1 | 1531.9 | 1538.1
303.15 K | 1512.5 | 1516.9 | 1521.6 | 1526.5 | 1531.7 | 1537.3 | 1543.2 | 1549.4
308.15 K | 1523.8 | 1528.1 | 1532.7 | 1537.5 | 1542.7 | 1548.2 | 1553.9 | 1560.1
313.15 K | 1530.7 | 1534.9 | 1539.4 | 1544.1 | 1549.2 | 1554.5 | 1560.2 | 1566.1
318.15 K | 1536.8 | 1540.9 | 1545.2 | 1549.8 | 1554.8 | 1560 | 1565.5 | 1571.3

OC[C@H]1O[C@@](CO)(O[C@H]2O[C@H](CO)[C@@H](O)[C@H](O)[C@H]2O)[C@@H](O)[C@@H]1O [D-sucrose] + O
[2]
Conditions | mass density [kg/m3] | speed of sound [m/s] | viscosity [mPa·s]
293.15 K, w1 = 0.05 | 1018.91 | – | –
293.15 K, w1 = 0.1 | 1039.28 | – | –
293.15 K, w1 = 0.15 | 1060.31 | – | –
293.15 K, w1 = 0.2 | 1082.73 | – | –
298.15 K, w1 = 0.05 | 1017.19 | 1516.5 | 1.011
298.15 K, w1 = 0.1 | 1037.45 | 1531.8 | 1.183
298.15 K, w1 = 0.15 | 1058.49 | 1543.6 | 1.418
298.15 K, w1 = 0.2 | 1080.77 | 1555.3 | 1.756
303.15 K, w1 = 0.05 | 1015.45 | 1526.6 | 0.9129
303.15 K, w1 = 0.1 | 1035.61 | 1541.8 | 1.061
303.15 K, w1 = 0.15 | 1056.67 | 1553 | 1.252
303.15 K, w1 = 0.2 | 1078.8 | 1564.6 | 1.549
308.15 K, w1 = 0.05 | 1013.72 | 1537.8 | 0.8285
308.15 K, w1 = 0.1 | 1033.76 | 1551.6 | 0.9614
308.15 K, w1 = 0.15 | 1054.84 | 1562 | 1.129
308.15 K, w1 = 0.2 | 1076.84 | 1575.2 | 1.396
313.15 K, w1 = 0.05 | 1011.98 | 1547.7 | 0.7457
313.15 K, w1 = 0.1 | 1031.93 | 1561.8 | 0.8804
313.15 K, w1 = 0.15 | 1053.01 | 1570.8 | 1.025
313.15 K, w1 = 0.2 | 1074.88 | 1583.9 | 1.25
318.15 K, w1 = 0.05 | 1010.23 | 1557.2 | 0.6946
318.15 K, w1 = 0.1 | 1030.09 | 1570.9 | 0.8179
318.15 K, w1 = 0.15 | 1051.2 | 1579.2 | 0.9402
318.15 K, w1 = 0.2 | 1072.93 | 1592.8 | 1.15

O [water]
[3]
Conditions | speed of sound [m/s]
303.15 K | 1508.4
313.15 K | 1526.8
318.15 K | 1533

Reference: the NIST ThermoML archive (doi:10.1016/j.jct.2013.05.012)
